Experimental data: US20250129095A1, “ANNULATED 2-AMINO-3-CYANO THIOPHENES AND DERIVATIVES FOR THE TREATMENT OF CANCER” (Boehringer Ingelheim Int'l GmbH Corp., priority 2021, published 2025)

These compounds were tested against T1, KRAS (G13D)::SOS1 (Homo sapiens, UniProt P01116, C118S/G13D) (assay: KRAS::SOS1 AlphaScreen binding assay, KRAS G13D).
T1 construct: KRAS (G13D) 1-169, N-terminal 6His-tag for purification, cleaved off; 6His-tag (N, cleaved yes); TEV cleavage site; made in house
Text: This assay can be used to examine the potency with which compounds according to the invention binding to (mutated) KRAS inhibit the protein-protein interaction between SOS1 and (mutated) KRAS e.g., KRAS WT, KRAS G12C, KRAS G12D, KRAS G12V, KRAS G13D. […] Low IC50 values in this assay setting are indicative of strong inhibition of protein-protein interaction between SOS1 and KRAS:
These assays measure the inhibitory effect of compounds on KRAS mutant protein-protein interactions using the Alpha Screen technology by Perkin Elmer […]
Plates are kept at room temperature in a darkened incubator. After an additional 60 minutes incubation time the signal is measured in a PerkinElmer Envision HTS Multilabel Reader using the AlphaScreen specs from PerkinElmer. […]
As internal control known inhibitors of KRAS mutant::SOS1 interaction can be measured on each compound plate. […]

T1 sequence (P01116 1-169 isoform P01116-2 G13D/C118S): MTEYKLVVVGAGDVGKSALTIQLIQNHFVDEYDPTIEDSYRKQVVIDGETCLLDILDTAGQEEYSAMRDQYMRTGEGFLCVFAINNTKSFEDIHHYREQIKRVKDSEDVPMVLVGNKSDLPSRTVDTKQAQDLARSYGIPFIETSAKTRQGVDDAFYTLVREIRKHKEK

| Compound | IC50 |
| --- | --- |
| C[C@H](Oc1cc(OCC2(N(C)C)COC2)nc(-c2onc3c2CCC[C@@]32CCCc3sc(N)c(C#N)c32)n1)[C@@H]1CCCN1C [Example I-8] | 8 nM |
| C[C@H](Oc1cc(OCC2(N(C)C)COC2)nc(-c2noc3c2CCC[C@@]32CCCc3sc(N)c(C#N)c32)n1)[C@@H]1CCCN1C [II-22] | 6 nM |
| COc1c(OCC2(N(C)C)COC2)nc(-c2noc3c2CCC[C@@]32CCCc3sc(N)c(C#N)c32)nc1O[C@@H](C)[C@@H]1CCCN1C [II-25] | 8 nM |
